# From patent publication US20250214983A1, “1,3,4-OXADIAZOLE TRIAZOLE COMPOUNDS AS HISTONE DEACETYLASE 6 INHIBITOR, AND PHARMACEUTICAL COMPOSITION COMPRISING THE SAME” (Chong Kun Dang Pharmaceutical Corp., priority 2022, published 2025)
# Columns and labels:
# human recombinant HDAC1 = target: T1, human recombinant HDAC1 (Homo sapiens, UniProt Q13547); assay: HDAC1 enzyme activity inhibition (HDAC Fluorimetric Drug Discovery Kit); type: biochemical; settings: human recombinant HDAC1, Fluor de Lys substrate 10 μM, 30° C. 60 minutes
# T1 construct: purchased Enzo Life Science, Inc. BML-SE456
# Experimental: (§1) An experiment was conducted to identify the selectivity of the 1,3,4-oxadiazole triazole compound of the present invention to HDAC6 through an experiment on HDAC1 and HDAC6 enzyme activity inhibition.
# (§2) The HDAC enzyme activity was measured with HDAC Fluorimetric Drug Discovery Kit (BML-AK511, 516) of Enzo Life Science, Inc. For the test on the HDAC1 enzyme activity, human recombinant HDAC1 (BML-SE456) was used as an enzyme source and Fluor de Lys®-“SIRT1 (BNL-KI177)” was used as a substrate. A 5-fold dilution of the compound was divided into a 96-well plate, after which 0.3 μg of the enzyme and 10 μM of the substrate were inserted into each well and subjected to reaction at 30° C. for 60 minutes, such that Fluor de Lys® Developer II (BML-KI176) was inserted thereinto and subjected to reaction for 30 minutes and finished. After that, a fluorescence value (Ex 360, Em 460) was measured with a multi-plate reader (Flexstation 3, Molecular Device). An experiment on HDAC6 enzyme was conducted in accordance with the same protocol as in the HDAC1 enzyme activity test method by using human recombinant HDAC6 (382180) of Calbiochem Inc. For final result values, each IC50 value was calculated with GraphPad Prism 4.0 program.
# human recombinant HDAC6 = target: T2, human recombinant HDAC6 (Homo sapiens, UniProt Q9UBN7); assay: HDAC6 enzyme activity inhibition (HDAC Fluorimetric Drug Discovery Kit); type: biochemical; settings: HDAC1 versus HDAC6
# T2 construct: purchased Calbiochem Inc. 382180
# T2 sequence (Q9UBN7 1-1215): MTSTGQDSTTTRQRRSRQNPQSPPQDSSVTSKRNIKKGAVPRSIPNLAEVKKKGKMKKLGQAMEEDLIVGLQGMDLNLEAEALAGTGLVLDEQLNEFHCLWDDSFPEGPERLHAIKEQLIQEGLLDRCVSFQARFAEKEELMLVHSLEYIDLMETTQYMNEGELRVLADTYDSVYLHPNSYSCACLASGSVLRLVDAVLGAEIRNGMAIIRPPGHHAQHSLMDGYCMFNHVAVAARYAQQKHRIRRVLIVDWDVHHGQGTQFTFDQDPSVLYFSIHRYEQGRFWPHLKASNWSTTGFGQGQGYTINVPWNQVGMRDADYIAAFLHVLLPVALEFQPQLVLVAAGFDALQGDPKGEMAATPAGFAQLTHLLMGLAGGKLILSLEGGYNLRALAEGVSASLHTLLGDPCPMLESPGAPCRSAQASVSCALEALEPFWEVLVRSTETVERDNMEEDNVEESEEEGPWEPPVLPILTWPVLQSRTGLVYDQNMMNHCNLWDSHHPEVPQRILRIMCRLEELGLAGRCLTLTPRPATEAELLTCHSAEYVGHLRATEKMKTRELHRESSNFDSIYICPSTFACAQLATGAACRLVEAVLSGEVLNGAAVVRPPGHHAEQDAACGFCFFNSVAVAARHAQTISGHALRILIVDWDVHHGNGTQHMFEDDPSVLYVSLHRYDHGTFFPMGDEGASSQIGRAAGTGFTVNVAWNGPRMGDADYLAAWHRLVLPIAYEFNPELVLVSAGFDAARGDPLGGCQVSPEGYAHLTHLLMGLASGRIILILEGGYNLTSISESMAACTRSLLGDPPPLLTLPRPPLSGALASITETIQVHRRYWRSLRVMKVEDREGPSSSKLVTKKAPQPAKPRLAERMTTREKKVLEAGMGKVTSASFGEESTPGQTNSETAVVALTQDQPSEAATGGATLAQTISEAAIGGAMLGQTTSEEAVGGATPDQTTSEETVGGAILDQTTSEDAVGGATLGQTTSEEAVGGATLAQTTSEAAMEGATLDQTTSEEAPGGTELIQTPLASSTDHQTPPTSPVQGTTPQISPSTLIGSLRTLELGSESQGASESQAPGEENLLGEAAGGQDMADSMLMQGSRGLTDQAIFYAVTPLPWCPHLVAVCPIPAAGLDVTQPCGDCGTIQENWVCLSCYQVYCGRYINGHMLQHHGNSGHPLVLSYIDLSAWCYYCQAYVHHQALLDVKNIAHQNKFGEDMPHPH
# Experimental: as §1, §2
# T1 sequence (Q13547 whole entry): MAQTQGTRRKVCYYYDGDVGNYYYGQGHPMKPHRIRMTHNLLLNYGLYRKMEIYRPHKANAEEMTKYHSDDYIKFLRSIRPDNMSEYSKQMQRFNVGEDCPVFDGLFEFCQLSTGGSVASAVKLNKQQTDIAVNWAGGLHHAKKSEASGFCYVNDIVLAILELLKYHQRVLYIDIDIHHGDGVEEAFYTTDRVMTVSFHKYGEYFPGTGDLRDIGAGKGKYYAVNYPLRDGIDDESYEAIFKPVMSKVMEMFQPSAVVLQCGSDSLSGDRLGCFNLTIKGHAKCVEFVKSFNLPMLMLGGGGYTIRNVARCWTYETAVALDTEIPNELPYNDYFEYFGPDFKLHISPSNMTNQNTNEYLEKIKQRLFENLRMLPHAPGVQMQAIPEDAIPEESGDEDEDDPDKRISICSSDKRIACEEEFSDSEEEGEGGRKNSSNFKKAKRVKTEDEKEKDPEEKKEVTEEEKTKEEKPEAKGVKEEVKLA
Compound,IC50 (human recombinant HDAC1) [µM],HDAC6 selectivity (fold) (human recombinant HDAC6)
"CN(C)Cc1cc(Cl)cc(-c2cn(Cc3ccc(-c4nnc(C(F)F)o4)cn3)nn2)c1 [Compound 31, 1-(3-chloro-5-(1-((5-(5-(difluoromethyl)-1,3,4-oxadiazol-2-yl)pyridin-2-yl)methyl)-1H-1,2,3-triazol-4-yl)phenyl)-N,N-dimethylmethanamine]",> 50,1424
"FC(F)c1nnc(-c2ccc(Cn3cc(-c4cc(Cl)cc(CN5CCCC5)c4)nn3)nc2)o1 [Compound 32, 2-(6-((4-(3-chloro-5-(pyrrolidin-1-ylmethyl)phenyl)-1H-1,2,3-triazol-1-yl)methyl)pyridin-3-yl)-5-(difluoromethyl)-1,3,4-oxadiazole]",> 50,1945
"Fc1cc(CN2CCC2)cc(-c2cn(Cc3ccc(-c4nnc(C(F)F)o4)cn3)nn2)c1 [Compound 38, 2-(6-((4-(3-(azetidin-1-ylmethyl)-5-fluorophenyl)-1H-1,2,3-triazol-1-yl)methyl)pyridin-3-yl)-5-(difluoromethyl)-1,3,4-oxadiazole]",> 50,2777
"Fc1cc(CN2CCCC2)cc(-c2cn(Cc3ccc(-c4nnc(C(F)F)o4)cn3)nn2)c1 [Compound 39, 2-(difluoromethyl)-5-(6-((4-(3-fluoro-5-(pyrrolidin-1-ylmethyl)phenyl)-1H-1,2,3-triazol-1-yl)methyl)pyridin-3-yl)-1,3,4-oxadiazole]",> 50,1773
"CN(C)Cc1ccc(-c2cn(Cc3ccc(-c4nnc(C(F)F)o4)cn3)nn2)cc1Cl [Compound 41, 1-(2-chloro-4-(1-((5-(5-(difluoromethyl)-1,3,4-oxadiazol-2-yl)pyridin-2-yl)methyl)-1H-1,2,3-triazol-4-yl)phenyl)-N,N-dimethylmethanamine]",> 50,2083

# More lines, now with the values ahead:
IC50 (human recombinant HDAC1) [µM],HDAC6 selectivity (fold) (human recombinant HDAC6),Compound
> 50,1440,"Fc1c(CN2CCCCC2)cccc1-c1cn(Cc2ccc(-c3nnc(C(F)F)o3)cn2)nn1 [Compound 28, 2-(difluoromethyl)-5-(6-((4-(2-fluoro-3-(piperidin-1-ylmethyl)phenyl)-1H-1,2,3-triazol-1-yl)methyl)pyridin-3-yl)-1,3,4-oxadiazole]"
> 50,1633,"CN(C)Cc1cccc(-c2cn(Cc3ccc(-c4nnc(C(F)F)o4)cn3)nn2)c1Cl [Compound 34, 1-(2-chloro-3-(1-((5-(5-(difluoromethyl)-1,3,4-oxadiazol-2-yl)pyridin-2-yl)methyl)-1H-1,2,3-triazol-4-yl)phenyl)-N,N-dimethylmethanamine]"
> 50,1146,"FC(F)c1nnc(-c2ccc(Cn3cc(-c4cccc(CN5CCC5)c4Cl)nn3)nc2)o1 [Compound 35, 2-(6-((4-(3-(azetidin-1-ylmethyl)-2-chlorophenyl)-1H-1,2,3-triazol-1-yl)methyl)pyridin-3-yl)-5-(difluoromethyl)-1,3,4-oxadiazole]"
> 50,1792,"FC(F)c1nnc(-c2ccc(Cn3cc(-c4cccc(CN5CCCC5)c4Cl)nn3)nc2)o1 [Compound 36, 2-(6-((4-(2-chloro-3-(pyrrolidin-1-ylmethyl)phenyl)-1H-1,2,3-triazol-1-yl)methyl)pyridin-3-yl)-5-(difluoromethyl)-1,3,4-oxadiazole]"
> 50,1160,"CC1CCN(Cc2cccc(-c3cn(Cc4ccc(-c5nnc(C(F)F)o5)cn4)nn3)c2Cl)CC1 [Compound 37, 2-(6-((4-(2-chloro-3-((4-methylpiperidin-1-yl)methyl)phenyl)-1H-1,2,3-triazol-1-yl)methyl)pyridin-3-yl)-5-(difluoromethyl)-1,3,4-oxadiazole]"
> 50,2183,"FC(F)c1nnc(-c2ccc(Cn3cc(-c4ccc(CN5CCC5)c(Cl)c4)nn3)nc2)o1 [Compound 42, 2-(6-((4-(4-(azetidin-1-ylmethyl)-3-chlorophenyl)-1H-1,2,3-triazol-1-yl)methyl)pyridin-3-yl)-5-(difluoromethyl)-1,3,4-oxadiazole]"
